Assay results taken from ChEMBL document CHEMBL4190202, “Gunnilactams A-C, Macrocyclic Tetralactams from the Mycelial Culture of the Entomogenous Fungus Paecilomyces gunnii” (J Nat Prod, 2017).

Legend:
[1] = tested on: LNCaP C4-2B; assay: Cytotoxicity against human C4-2B cells after 72 hrs by MTT assay; assay type: functional, cell-based
[2] = tested on: DU-145; assay: Growth inhibition of human DU145 cells at 2 uM after 72 hrs by MTT assay relative to control; assay type: functional; conditions: DU-145, 72 h, read-out: GI

With `C[C@@H]1NC(=O)/C=C/[C@@H](O)CC[C@H](C)NC(=O)[C@H]2C[C@]1(O)NC1=C2C(=O)N[C@@H](C)C1` the IC50 [1] was 5.4 µM and the inhibition of growth at 2 µM [2] was 4.5%.
